In the METLIN SMRT retention time set (Domingo-Almenara et al. 2019) one finds RP-LC retention time data, which are given here for 80 molecules.

This data set is described as follows: gradient 5% acetonitrile 3 min, to 50% in 2 min, to 85% in 15 min, held 3 min, 100 µL/min. Conditions: column: Zorbax Extend-C18 2.1 x 50 mm; eluents: water / acetonitrile, 0.1% formic acid. In outline:
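Values are retention times taken from adduct peaks that software picked and an analyst inspected. The pure standards were run as mixtures of ~100 molecules on HPLC linked to a quadrupole time-of-flight mass spectrometer, in positive and negative ionization mode. A Zorbax Extend-C18 column (2.1 × 50 mm, 1.8 μm) was used at 100 μL/min with water and acetonitrile, each including 0.1% formic acid.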
Regarding `Cn1nccc1C(=O)N1CCC(c2nncn2Cc2ccccc2)CC1`, the RP-LC retention time worked out at 624 s.
Then `Cc1cc2c(cc1S(=O)(=O)N1CCCC1C(=O)Nc1ccc(F)c(Cl)c1)OC(C)C(=O)N2` (stereo not given), with 866 s; and `CC(C)CN1Cc2ccccc2-n2ccnc2C12CCN(C(=O)c1ccoc1)CC2`, with 665 s; and `CSc1ccc(-c2nc3ccc(Cl)cn3c2NC2CCCCC2)cc1`, with 926 s.
On to `Cc1ccn2c(Nc3ccccc3C)c(-c3ccc(N(C)C)cc3)nc2c1`, for which the RP-LC retention time came out at 809 s.
Then `CCCNC(=O)C1CCN(c2ccc(SCC(=O)Nc3cccc(C(=O)OCC)c3)nn2)CC1`, with 675 s; and `CN1CCC(NC(=O)C2CCc3sc(C(=O)N4CCCCC4)cc3C2)CC1` (stereo not given), with 587 s.
`Cc1ccc(-c2nc3cnccn3c2NCCC(=O)NC2CCCC2)cc1`: the RP-LC retention time worked out at 696 s.
The result for `CC1=C(c2ccc(Cl)cc2)S(=O)(=O)N=C1N1CCCN(C(=O)c2cccnc2)CC1` reads 701 s; that for `COc1ccccc1-c1noc(CCc2nnc3ccc(N4CCN(Cc5ccccc5)CC4)nn23)n1`, 616 s; that for `CCc1cccc(NC(=O)C2CCN(S(=O)(=O)c3ccc4c(c3)sc(=O)n4C(C)C)CC2)c1`, 953 s.
The result for `Cc1cc(NC(=O)NCC(=O)N2CCc3ccccc32)ccc1Br` reads 959 s; that for `CCc1nc(-c2cc(S(=O)(=O)N3CCC(C(=O)NC4CCCCCCC4)CC3)c(C)s2)no1`, 1130 s.
Then `Cc1ccc2nc(-c3ccc(N4CCOCC4)cc3)c(Nc3ccc4c(c3)OCO4)n2c1`, with 690 s.
The molecule `O=C(NCc1ccc(Cl)cc1)c1cn2c(n1)COCC2` registered an RP-LC retention time of 678 s.
Then `CCC(CC)C(=O)Nc1c(-c2ccc(F)cc2)nc2cc(C)ccn12`, with 674 s; and `COc1ccc(OC)c(S(=O)(=O)NCc2ccc3c(c2)CCN3C(C)=O)c1`, with 719 s; and `O=C1Nc2ccc(I)cc2C1=Cc1cc(Br)c(O)c(Br)c1`, with 1090 s.
As to `CCNC(=O)C1CCN(c2nc3ncn(CC(=O)Nc4ccc(OCC)cc4)c(=O)c3s2)CC1`, the RP-LC retention time was determined as 662 s.
`Cc1ccc(-n2c(=O)c3c(cc(C)n3C)n(CC(=O)Nc3c(C)cccc3C)c2=O)cc1`: the RP-LC retention time was found to be 912 s.
In the case of `Nc1nnc(SCc2nnc(-c3cccc(F)c3)o2)s1`, the RP-LC retention time came out at 646 s.
Then `COCCNC(=O)CC1CCN(C(=O)c2[nH]c(C)c(C(=O)OC)c2C)CC1`, with 614 s.
The result for `Fc1ccc(-c2ccc(-c3nn4c(-c5ccco5)nnc4s3)o2)cc1` reads 896 s; that for `CCCC(=O)Nc1nc(-c2ccc3c(c2)NC(=O)C(C)O3)c(C)s1` (stereo not given), 812 s.
On to `COc1ccc(C2c3sc(=O)[nH]c3SC3C(=O)N(CC(=O)O)C(=O)C32)cc1` (stereo not given), for which the RP-LC retention time worked out at 632 s.
Then `Cc1c(Cl)cccc1Nc1c(-c2cccc(Cl)c2)nc2cnccn12`, with 1140 s.
Then `CCc1ccc(S(=O)(=O)c2cnc(N3CCC(C(N)=O)(N4CCCCC4)CC3)nc2N)cc1`, with 661 s; and `Cc1ccc(-n2nc(N3CCCC(C(=O)NCc4ccccc4F)C3)ccc2=O)cc1Cl` (stereo not given), with 942 s.
Then `O=C(NCC1CC1)c1ccc(NC(=O)C2CCC2)cc1N1CCOCC1`, with 709 s; and `CCCn1cc(CCNC(=O)c2cccc(Br)c2)c2cccnc21`, with 833 s; and `c1ccc(-c2noc(-c3ccc(N4CCN(c5ccccn5)CC4)nc3)n2)cc1`, with 768 s.
The molecule `CCc1ccc(-c2csc(NC(=O)c3ccc(S(=O)(=O)N4CCCCC4)cc3)n2)cc1` showed an RP-LC retention time of 1260 s.
The molecule `CN1CCN(CCNC(=O)c2cnn3c4c(cnc23)CCCCCC4)CC1` displayed an RP-LC retention time of 599 s.
With `Cc1cc(SCC(=O)Nc2nc(-c3ccccc3)cs2)nc(C)n1`, the RP-LC retention time turned out to be 841 s.
The result for `COc1cc(F)ccc1-c1ccnc2nc(C3CCCCC3)nn12` reads 1000 s; that for `CC(CC(=O)O)CC(=O)Nc1nc(-c2ccccc2)c(-c2ccccc2)s1` (stereo not given), 927 s.
Then `Cn1c(C(=O)NCCCN2CCCCCC2)cc2c(-c3cccs3)nn(-c3ccccc3)c21`, with 795 s; and `O=C(Nc1cc(-c2ccncc2)no1)c1ccccc1`, with 663 s; and `CC1(C(=O)Nc2cccc(F)c2)CCCCC(=O)N1` (stereo not given), with 694 s.
Then `COc1ccc(CCNC(=O)CSc2nccn2Cc2ccco2)cc1OC`, with 574 s.
Consider `CC1(O)CCOC2(CCN(Cc3ccccc3OC(F)(F)F)CC2)C1` (stereo not given), for which the RP-LC retention time stood at 632 s.
The result for `O=C(NC1CCN(c2ccc(F)cc2)C1=O)c1ccc2c(c1)OCO2` (stereo not given) reads 764 s.
Then `CCC(=O)NCc1nc2c(n1CC)CN(C(=O)c1ccc(C(F)(F)F)s1)CC2`, with 579 s; and `Cc1nccn1CCNC(=O)c1cc(-c2ccccc2)on1`, with 569 s.
The result for `CC1=C(c2ccc(F)cc2)S(=O)(=O)N=C1N1CCC(C(=O)NCCc2ccco2)CC1` reads 802 s; that for `CC1(C(=O)NCc2ccccc2)CN(S(=O)(=O)c2ccccc2)CC(=O)N1c1cccc(Cl)c1` (stereo not given), 958 s; that for `CC(=O)N1CCCC1c1nc2ccccc2n1CC(=O)N1CCC(C)CC1` (stereo not given), 567 s.
As to `Cc1ccc(NC(=O)C2CCN(S(=O)(=O)c3ccc4c(c3)CCCC(=O)N4)CC2)cc1`, the RP-LC retention time was 948 s.
The result for `Cc1noc(-c2nc(Cc3ccc(F)cc3)no2)n1` reads 953 s; that for `CC(C)c1cc(=O)n2c(n1)SCC2CC(=O)Nc1cccc(F)c1` (stereo not given), 763 s.
The result for `COc1ccc(OC)c(NC(=O)c2ccc3nc(-c4ccccc4)cn3c2)c1` reads 762 s.
Then `O=C(Cc1ccc(Cl)cc1)NCC(=O)N1CCCc2ccccc21`, with 862 s; and `Cc1ccc2c(c1)C(O)(CC(=O)c1ccc(NC(=O)C3CCCCC3)cc1)C(=O)N2` (stereo not given), with 766 s.
Regarding `CNC(=O)c1cccc(Nc2c(-c3ccccc3)nc3cnccn23)c1`, the RP-LC retention time stood at 645 s.
The result for `O=C(CN1C(=O)CC(c2ccccc2)=Nc2cccnc21)Nc1ccc(Cl)cc1` reads 1010 s.
The result for `CCOc1ccc(CC(=O)N2c3ccccc3CC2c2nc(C3CC3)no2)cc1OCC` (stereo not given) reads 1070 s; that for `O=C(c1ccc(Cl)c(N2C(=O)CCS2(=O)=O)c1)N1CCN(c2ncccn2)CC1`, 641 s; that for `CCOc1cc(C(=O)Nc2ccc(-c3cn4cccnc4n3)cc2)cc(OCC)c1OCC`, 759 s.
Consider `CCC(=O)Nc1nc(-c2ccc3c(c2)N(CC)C(=O)CO3)c(C)s1`, for which the RP-LC retention time turned out to be 812 s.
Then `Cc1noc([C@@H]2CN(Cc3cccc(Cl)c3)C[C@H]2CO)n1`, with 603 s; and `CCn1c(N2CCCC(C(=O)NCCCN3CCCc4ccccc43)C2)cc(=O)n(C)c1=O` (stereo not given), with 847 s; and `Cc1ccc(-c2ncccc2CNS(=O)(=O)Cc2cc(F)cc(F)c2)cc1`, with 739 s.
The molecule `Fc1cc(F)cc(-c2nnc(Cc3nc(-c4ccccn4)no3)o2)c1` yielded an RP-LC retention time of 814 s.
The result for `Nc1c(C(=O)NCC2CCCO2)c2nc3ccccc3nc2n1C1CCCC1` (stereo not given) reads 1070 s; that for `COCc1nc(NCc2cccnc2)ncc1C(=O)O`, 809 s.
The result for `O=C(Cn1c(=O)oc2ccc(Cl)cc21)NC1CCCCC1` reads 878 s.
The result for `Cc1ccc(-c2nc(-c3ccnc(N4CCOCC4)c3)no2)cc1` reads 1050 s; that for `O=C(Nc1ccccn1)C1(c2cccs2)CCOCC1`, 745 s; that for `CCNC(=O)C1CCCN(c2nc3ncn(CC(=O)Nc4ccc(C)c(Cl)c4)c(=O)c3s2)C1` (stereo not given), 738 s.
With `O=S(=O)(c1cccn2c(SCc3ccc(F)cc3Cl)nnc12)N1CCCCC1`, the RP-LC retention time was determined as 879 s.
Then `Cc1ccc(NC(=O)Nc2cccc(-c3ccc(N4CCOCC4)nn3)c2)c(C)c1`, with 732 s; and `COc1ccc(N2CCN(CC(O)COc3c(C)cccc3C)CC2)cc1` (stereo not given), with 698 s; and `O=C(NCC(O)C1CCCCC1)c1cccc2ccccc12` (stereo not given), with 802 s.
Then `Cc1ccc(NC(=O)C2CCN(S(=O)(=O)c3cc(C(=O)N4CCCC4)n(C)c3)CC2)cc1C`, with 836 s; and `O=C(O)C1CN(C(=O)COc2ccccc2F)C1`, with 604 s; and `Cn1nc(C(=O)N2CCC3(CC2)N=C(c2ccc(Br)cc2)NO3)c2ccccc21`, with 916 s.
Then `CSc1cccc(NC(=O)Nc2c(-c3ccncc3)nc3ccccn23)c1`, with 623 s.
With `Cc1cccc(NC(=O)N2CCN(c3ccc(=O)n(-c4ccccc4)n3)CC2)c1`, the RP-LC retention time came out at 776 s.
Regarding `CC(C)CCNC(=O)NCCc1nc2cccnc2n1Cc1ccccc1`, the RP-LC retention time came out at 726 s.
Then `COc1cccc(-c2noc(C3CCCN3C(=O)NC(C)C)n2)c1` (stereo not given), with 802 s.
